Molecular target: KRAS G12C and cRAF (Ras-binding domain) interaction (Homo sapiens (Human), UniProt P01116, C118S/C51S/C80L/G12C)
Test: Inhibition of KRAS G12C and cRAF binding (AlphaScreen)
Conditions: GMPPNP-loaded KRAS G12C, 19-20 hours incubation with compound; read-out: IC50 (Inhibition of KRAS G12C and cRAF Binding)
Procedure, shortened: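 Compounds (DMSO) preincubated 19-20 h at room temperature, then RBD with streptavidin donor and glutathione acceptor beads added in 25 mM Hepes pH 7.4, 150 mM NaCl, 5 mM MgCl2, 0.01% Triton X-100, 2% DMSO for 60-90 min. Emission 570 nm (excitation 680 nm); IC50 by 4-parameter fit. Counter-screen used biotin-AviTag-GST instead of RBD.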

KRAS G12C and cRAF (Ras-binding domain) interaction, sequence (P01116 other isoform, or with tags, fused parts or gaps G12C/C51S/C80L/C118S): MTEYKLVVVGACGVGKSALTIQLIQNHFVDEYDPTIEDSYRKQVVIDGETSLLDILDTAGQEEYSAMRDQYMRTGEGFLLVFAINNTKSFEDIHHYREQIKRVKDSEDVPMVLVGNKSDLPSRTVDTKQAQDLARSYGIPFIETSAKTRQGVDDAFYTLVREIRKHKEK

Row | SMILES | IC50
1 | Cc1nsc(/C=C/C(=O)N2C[C@H](F)[C@@H](N(C)c3nc(OC[C@@]45CCCN4C[C@H](F)C5)nc4c(F)c(-c5cccc6cccc(Cl)c56)ncc34)C2)n1 [Example 215, (E)-1-((3S,4S)-3-((7-(8-chloronaphthalen-1-yl)-8-fluoro-2-(((2R,7aS)-2-fluorohexahydro-1H-pyrrolizin-7a-yl)methoxy)pyrido[4,3-d]pyrimidin-4-yl)(methyl)amino)-4-fluoropyrrolidin-1-yl)-3-(3-methyl-1,2,4-thiadiazol-5-yl)prop-2-en-1-one] | 100 to 500 nM
2 | Cc1nccc(/C=C/C(=O)N2C[C@H](F)[C@@H](N(C)c3nc(OC[C@@]45CCCN4C[C@H](F)C5)nc4c(F)c(-c5cccc6cccc(Cl)c56)ncc34)C2)n1 [Example 216, (E)-1-((3S,4S)-3-((7-(8-chloronaphthalen-1-yl)-8-fluoro-2-(((2R,7aS)-2-fluorotetrahydro-1H-pyrrolizin-7a(5H)-yl)methoxy)pyrido[4,3-d]pyrimidin-4-yl)(methyl)amino)-4-fluoropyrrolidin-1-yl)-3-(2-methylpyrimidin-4-yl)prop-2-en-1-one] | 100 to 500 nM
3 | CN(c1nc(OC[C@@]23CCCN2C[C@H](F)C3)nc2c(F)c(-c3cccc4cccc(Cl)c34)ncc12)[C@@H]1CN(C(=O)/C=C/c2nc(C(C)(C)O)no2)C[C@H]1F [Example 217, (E)-1-((3R,4R)-3-((7-(8-chloronaphthalen-1-yl)-8-fluoro-2-(((2R,7aS)-2-fluorotetrahydro-1H-pyrrolizin-7a(5H)-yl)methoxy)pyrido[4,3-d]pyrimidin-4-yl)(methyl)amino)-4-fluoropyrrolidin-1-yl)-3-(3-(2-hydroxypropan-2-yl)-1,2,4-oxadiazol-5-yl)prop-2-en-1-one] | > 500 nM
4 | CN(CC1CN(C(=O)/C=C/[C@@H]2CCN2C)C1)c1nc(OC[C@@]23CCCN2C[C@H](F)C3)nc2c(F)c(-c3cccc4cccc(Cl)c34)ncc12 [Example 218, (E)-1-(3-(((7-(8-chloronaphthalen-1-yl)-8-fluoro-2-(((2R,7aS)-2-fluorotetrahydro-1H-pyrrolizin-7a(5H)-yl)methoxy)pyrido[4,3-d]pyrimidin-4-yl)(methyl)amino)methyl)azetidin-1-yl)-3-((S)-1-methylazetidin-2-yl)prop-2-en-1-one] | 10 to 100 nM
5 | CN(CC1CN(C(=O)/C=C/[C@H]2CCN2C)C1)c1nc(OC[C@@]23CCCN2C[C@H](F)C3)nc2c(F)c(-c3cccc4cccc(Cl)c34)ncc12 [Example 219, (E)-1-(3-(((7-(8-chloronaphthalen-1-yl)-8-fluoro-2-(((2R,7aS)-2-fluorotetrahydro-1H-pyrrolizin-7a(5H)-yl)methoxy)pyrido[4,3-d]pyrimidin-4-yl)(methyl)amino)methyl)azetidin-1-yl)-3-((R)-1-methylazetidin-2-yl)prop-2-en-1-one] | 10 to 100 nM
6 | CN(CC1CN(C(=O)/C=C/[C@@H]2CCN2C)C1)c1nc(OC[C@@]23CCCN2C[C@H](F)C3)nc2c(F)c(-c3cccc4ccc(F)c(Cl)c34)ncc12 [Example 220, (E)-1-(3-(((7-(8-chloro-7-fluoronaphthalen-1-yl)-8-fluoro-2-(((2R,7aS)-2-fluorotetrahydro-1H-pyrrolizin-7a(5H)-yl)methoxy)pyrido[4,3-d]pyrimidin-4-yl)(methyl)amino)methyl)azetidin-1-yl)-3-((S)-1-methylazetidin-2-yl)prop-2-en-1-one] | < 10 nM
7 | CN(CC1CN(C(=O)/C=C/[C@H]2CCN2C)C1)c1nc(OC[C@@]23CCCN2C[C@H](F)C3)nc2c(F)c(-c3cccc4ccc(F)c(Cl)c34)ncc12 [Example 221, (E)-1-(3-(((7-(8-chloro-7-fluoronaphthalen-1-yl)-8-fluoro-2-(((2R,7aS)-2-fluorotetrahydro-1H-pyrrolizin-7a(5H)-yl)methoxy)pyrido[4,3-d]pyrimidin-4-yl)(methyl)amino)methyl)azetidin-1-yl)-3-((R)-1-methylazetidin-2-yl)prop-2-en-1-one] | < 10 nM
8 | CN(c1nc(OC[C@@]23CCCN2C[C@H](F)C3)nc2c(F)c(-c3cccc4ccc(F)c(Cl)c34)ncc12)[C@@H]1CCN(C(=O)/C=C/[C@H]2CCN2CCO)C1 [Example 222, (E)-1-((R)-3-((7-(8-chloro-7-fluoronaphthalen-1-yl)-8-fluoro-2-(((2R,7aS)-2-fluorotetrahydro-1H-pyrrolizin-7a(5H)-yl)methoxy)pyrido[4,3-d]pyrimidin-4-yl)(methyl)amino)pyrrolidin-1-yl)-3-((R)-1-(2-hydroxyethyl)azetidin-2-yl)prop-2-en-1-one] | < 10 nM
9 | CCN1CC[C@@H]1/C=C/C(=O)N1CC[C@@H](N(C)c2nc(OC[C@@]34CCCN3C[C@H](F)C4)nc3c(F)c(-c4cccc5cccc(Cl)c45)ncc23)C1 [Example 223, (E)-1-((R)-3-((7-(8-chloronaphthalen-1-yl)-8-fluoro-2-(((2R,7aS)-2-fluorotetrahydro-1H-pyrrolizin-7a(5H)-yl)methoxy)pyrido[4,3-d]pyrimidin-4-yl)(methyl)amino)pyrrolidin-1-yl)-3-((R)-1-ethylazetidin-2-yl)prop-2-en-1-one] | 10 to 100 nM
10 | CN(c1nc(OC[C@@]23CCCN2C[C@H](F)C3)nc2c(F)c(-c3cccc4cccc(Cl)c34)ncc12)[C@@H]1CCN(C(=O)/C=C/[C@H]2CCN2CC2COC2)C1 [Example 224, (E)-1-((R)-3-((7-(8-chloronaphthalen-1-yl)-8-fluoro-2-(((2R,7aS)-2-fluorotetrahydro-1H-pyrrolizin-7a(5H)-yl)methoxy)pyrido[4,3-d]pyrimidin-4-yl)(methyl)amino)pyrrolidin-1-yl)-3-((R)-1-(oxetan-3-ylmethyl)azetidin-2-yl)prop-2-en-1-one] | 10 to 100 nM
11 | CN(c1nc(OC[C@@]23CCCN2C[C@H](F)C3)nc2c(F)c(-c3cccc4ccc(F)c(Cl)c34)ncc12)[C@@H]1CCN(C(=O)C#CCN2CC(F)C2)C1 [Example 225, 1-((R)-3-((7-(8-chloro-7-fluoronaphthalen-1-yl)-8-fluoro-2-(((2R,7aS)-2-fluorohexahydro-1H-pyrrolizin-7a-yl)methoxy)pyrido[4,3-d]pyrimidin-4-yl)(methyl)amino)pyrrolidin-1-yl)-4-(3-fluoroazetidin-1-yl)but-2-yn-1-one] | 10 to 100 nM
12 | CN(CC1CN(C(=O)/C=C/c2nc(C(C)(C)O)no2)C1)c1nc(OCC23CCCN2CCC3)nc2c(F)c(-c3cccc4ccc(F)c(Cl)c34)ncc12 [Example 229, (E)-1-(3-(((7-(8-chloro-7-fluoronaphthalen-1-yl)-8-fluoro-2-((tetrahydro-1H-pyrrolizin-7a(5H)-yl)methoxy)pyrido[4,3-d]pyrimidin-4-yl)(methyl)amino)methyl)azetidin-1-yl)-3-(3-(2-hydroxypropan-2-yl)-1,2,4-oxadiazol-5-yl)prop-2-en-1-one] | < 10 nM
13 | CN(c1nc(OC[C@@]23CCCN2C[C@H](F)C3)nc2c(F)c(-c3cccc4cccc(Cl)c34)ncc12)[C@@H]1CCN(C(=O)/C=C/c2ncncc2F)C1 [Example 230, (E)-1-((R)-3-((7-(8-chloronaphthalen-1-yl)-8-fluoro-2-(((2R,7aS)-2-fluorotetrahydro-1H-pyrrolizin-7a(5H)-yl)methoxy)pyrido[4,3-d]pyrimidin-4-yl)(methyl)amino)pyrrolidin-1-yl)-3-(5-fluoropyrimidin-4-yl)prop-2-en-1-one] | 10 to 100 nM
14 | CC(C)N1CC[C@@H]1/C=C/C(=O)N1CC[C@@H](N(C)c2nc(OC[C@@]34CCCN3C[C@H](F)C4)nc3c(F)c(-c4cccc5cccc(Cl)c45)ncc23)C1 [Example 232, (E)-1-((R)-3-((7-(8-chloronaphthalen-1-yl)-8-fluoro-2-(((2R,7aS)-2-fluorotetrahydro-1H-pyrrolizin-7a(5H)-yl)methoxy)pyrido[4,3-d]pyrimidin-4-yl)(methyl)amino)pyrrolidin-1-yl)-3-((R)-1-isopropylazetidin-2-yl)prop-2-en-1-one] | 10 to 100 nM
15 | CN(c1nc(OC[C@@]23CCCN2C[C@H](F)C3)nc2c(F)c(-c3cccc4cccc(Cl)c34)ncc12)[C@@H]1CCN(C(=O)/C=C/[C@H]2CCN2CCO)C1 [Example 233, (E)-1-((R)-3-((7-(8-chloronaphthalen-1-yl)-8-fluoro-2-(((2R,7aS)-2-fluorotetrahydro-1H-pyrrolizin-7a(5H)-yl)methoxy)pyrido[4,3-d]pyrimidin-4-yl)(methyl)amino)pyrrolidin-1-yl)-3-((R)-1-(2-hydroxyethyl)azetidin-2-yl)prop-2-en-1-one] | 10 to 100 nM
16 | COCCN1CC[C@@H]1/C=C/C(=O)N1CC[C@@H](N(C)c2nc(OC[C@@]34CCCN3C[C@H](F)C4)nc3c(F)c(-c4cccc5cccc(Cl)c45)ncc23)C1 [Example 234, (E)-1-((R)-3-((7-(8-chloronaphthalen-1-yl)-8-fluoro-2-(((2R,7aS)-2-fluorotetrahydro-1H-pyrrolizin-7a(5H)-yl)methoxy)pyrido[4,3-d]pyrimidin-4-yl)(methyl)amino)pyrrolidin-1-yl)-3-((R)-1-(2-methoxyethyl)azetidin-2-yl)prop-2-en-1-one] | 10 to 100 nM
17 | COCCN(C)C/C=C/C(=O)N1CC[C@@H](N(C)c2nc(OC[C@@]34CCCN3C[C@H](F)C4)nc3c(F)c(-c4cccc5cccc(Cl)c45)ncc23)C1 [Example 235, (E)-1-((R)-3-((7-(8-chloronaphthalen-1-yl)-8-fluoro-2-(((2R,7aS)-2-fluorohexahydro-1H-pyrrolizin-7a-yl)methoxy)pyrido[4,3-d]pyrimidin-4-yl)(methyl)amino)pyrrolidin-1-yl)-4-((2-methoxyethyl)(methyl)amino)but-2-en-1-one] | < 10 nM
18 | C=CC(=O)N1C[C@H](F)[C@@H](N(C)c2nc(OCC34CCCN3CCC4)nc3c(F)c(-c4cccc5ccc(F)c(Cl)c45)ncc23)C1 [Example 237, 1-((3S,4S)-3-((7-(8-chloro-7-fluoronaphthalen-1-yl)-8-fluoro-2-((tetrahydro-1H-pyrrolizin-7a(5H)-yl)methoxy)pyrido[4,3-d]pyrimidin-4-yl)(methyl)amino)-4-fluoropyrrolidin-1-yl)prop-2-en-1-one] | 10 to 100 nM

Reference: patent US20250019387A1 (Frontier Medicines Corporation, priority 0001, published 2025)
